Calls of active or inactive are those of the source. The rule behind the calls is not given here.
How the values were obtained:
Rattus norvegicus = experiment: Anticoagulant activity in rat at 100 x 0.25 mg/kg, ip; type: functional, organism-based; design: dose 0.25 mg/kg
[1] = Retardation factor of the compound in 9:1 v/v benzene-ethyl acetate solvent system by TLC analysis; type: physicochemical
Liver microsome [2] = experiment: Drug level in Wistar albino rat liver microsomes treated with clocoumarol at 5 umol after 30 mins TLC analysis in presence of NADPH generating system; type: ADME; settings: 0.5 h
Liver microsome [3] = experiment: Drug metabolism Wistar albino rat liver microsomes assessed as formation of 6-[1-Hydroxy-2-oxo-3-[p-(2-chloroethyl)phenyl]hexylidene]-2,4-cyclohexadien-1-one at 5 umol after 30 mins by TLC analysis in presence of carbon monooxide; type: ADME; settings: 0.5 h
Liver microsome [4] = experiment: Drug level in Wistar albino rat washed liver microsomal fraction treated with clocoumarol at 5 umol after 30 mins by TLC analysis; type: ADME; settings: microsomes, 0.5 h
[5] = Drug level in Duncan-Hartley guinea pig liver microsomes treated with clocoumarol at 5 umol after 30 mins by TLC analysis in presence of NADPH generating system; type: ADME, Cavia porcellus; settings: 0.5 h
[6] = Drug level in CBRI mouse liver microsomes treated with clocoumarol at 5 umol after 30 mins by TLC analysis in presence of NADPH generating system; type: ADME; settings: 0.5 h
Liver microsome [7] = experiment: Drug level in Wistar albino rat liver microsomes treated with clocoumarol at 5 umol after 30 mins by TLC analysis in presence of NADP/NAD/NADH/oxygen; type: ADME; settings: 0.5 h
[8] = Retardation factor of the compound in 9:1 v/v dichloroethane-acetone solvent system by TLC analysis; type: physicochemical
[9] = Retardation factor of the compound in 20:3 v/v benzene-acetic acid solvent system by TLC analysis; type: physicochemical
Liver microsome [10] = experiment: Drug metabolism in Wistar albino rat liver microsomes assessed as formation of 6-[1-Hydroxy-2-oxo-3-[p-(2-chloroethyl)phenyl]hexylidene]-2,4-cyclohexadien-1-one at 5 umol after 30 mins by TLC analysis in presence of NADP/NAD/NADH/oxygen; type: ADME; settings: 0.5 h
[11] = Drug metabolism in Wistar albino rat mitochondrial fraction assessed as formation of 6-[1-Hydroxy-2-oxo-3-[p-(2-chloroethyl)phenyl]hexylidene]-2,4-cyclohexadien-1-one at 5 umol after 30 mins by TLC analysis; type: ADME, Mitochondria; settings: 0.5 h
[12] = Drug metabolism in CBRI mouse liver microsomes assessed as formation of 6-[1-Hydroxy-2-oxo-3-[p-(2-chloroethyl)phenyl]hexylidene]-2,4-cyclohexadien-1-one at 5 umol after 30 mins by TLC analysis in presence of NADPH generating system; type: ADME; settings: 0.5 h
Liver microsome [13] = experiment: Drug metabolism in Wistar albino rat liver soluble microsomal fraction assessed as formation of 6-[1-Hydroxy-2-oxo-3-[p-(2-chloroethyl)phenyl]hexylidene]-2,4-cyclohexadien-1-one; type: ADME; settings: microsomes
[14] = Drug metabolism in Duncan-Hartley guinea pig liver microsomes assessed as formation of 6-[1-Hydroxy-2-oxo-3-[p-(2-chloroethyl)phenyl]hexylidene]-2,4-cyclohexadien-1-one at 5 umol after 30 mins by TLC analysis in presence of NADPH generating system; type: ADME, Cavia porcellus; settings: 0.5 h
Liver microsome [15] = experiment: Drug metabolism in Wistar albino rat washed liver microsomal fraction assessed as formation of 6-[1-Hydroxy-2-oxo-3-[p-(2-chloroethyl)phenyl]hexylidene]-2,4-cyclohexadien-1-one at 5 umol after 30 mins by TLC analysis; type: ADME; settings: microsomes, 0.5 h
Liver microsome [16] = experiment: Drug metabolism in Wistar albino rat liver microsomes assessed as formation of 6-[1-Hydroxy-2-oxo-3-[p-(2-chloroethyl)phenyl]hexylidene]-2,4-cyclohexadien-1-one at 5 umol after 30 mins by TLC analysis in presence of nitrogen; type: ADME; settings: 0.5 h
[17] = Drug metabolism in Wistar albino rat liver nuclear fraction assessed as formation of 6-[1-Hydroxy-2-oxo-3-[p-(2-chloroethyl)phenyl]hexylidene]-2,4-cyclohexadien-1-one at 5 umol after 30 mins by TLC analysis; type: ADME; settings: 0.5 h

Drug metabolism (Liver microsome [2]) | Drug metabolism (Liver microsome [3]) | Drug metabolism (Liver microsome [4]) | Drug metabolism [5] | Drug metabolism [6] | Drug metabolism (Liver microsome [7]) | SMILES | Activity (Rattus norvegicus) | Rf [1] | Rf [8] | Rf [9] | Drug metabolism (Liver microsome [10]) | Drug metabolism [11] | Drug metabolism [12] | Drug metabolism (Liver microsome [13]) | Drug metabolism [14] | Drug metabolism (Liver microsome [15]) | Drug metabolism (Liver microsome [16]) | Drug metabolism [17]
metabolite_detected | metabolite_notdetected | metabolite_detected | metabolite_detected | metabolite_detected | metabolite_detected | CCCC(C(=O)/C(O)=C1\C=CC=CC1=O)c1ccc(CCCl)cc1 (stereo unspecified) | inactive | 0.44 | 0.61 | 0.74 | – | – | – | – | – | – | – | –
– | – | – | – | – | – | CCCC(c1ccc(CCCl)cc1)c1c(O)c2ccccc2oc1=O (stereo unspecified) [CLOCOUMAROL] | – | 0.33 | 0.53 | 0.67 | metabolite_detected | metabolite_notdetected | metabolite_detected | metabolite_notdetected | metabolite_detected | metabolite_detected | metabolite_notdetected | metabolite_notdetected

Source: ChEMBL document CHEMBL3243959, “In vitro metabolism of a new 4-hydroxycoumarin anticoagulant. Structure of an unusual metabolite” (J Med Chem, 1977)
